# According to ChEMBL document CHEMBL1201862, “PubChem BioAssay data set” (2004):
# The source made the active and inactive calls.
# How the values were obtained:
# [1] = Late stage assay provider results from the probe development effort to identify selective inhibitors of heat shock protein 90 (HSP90): Absorbance-based cell proliferation assay in MCF7 cells.; format: functional
# [2] = Late stage assay provider results from the probe development effort to identify selective inhibitors of heat shock protein 90 (HSP90): Absorbance-based cell proliferation assay in SKBR3 cells.; format: functional; settings: SK-BR-3
# [3] = biological target: T1, Replicative DNA helicase DnaB (Mycobacterium tuberculosis, UniProt P9WMR3); assay: DnaB intein splicing inhibitors, dose response, biochemical, cell-free fluorescence (AID 449749); format: functional
# T1 sequence (P9WMR3 whole entry): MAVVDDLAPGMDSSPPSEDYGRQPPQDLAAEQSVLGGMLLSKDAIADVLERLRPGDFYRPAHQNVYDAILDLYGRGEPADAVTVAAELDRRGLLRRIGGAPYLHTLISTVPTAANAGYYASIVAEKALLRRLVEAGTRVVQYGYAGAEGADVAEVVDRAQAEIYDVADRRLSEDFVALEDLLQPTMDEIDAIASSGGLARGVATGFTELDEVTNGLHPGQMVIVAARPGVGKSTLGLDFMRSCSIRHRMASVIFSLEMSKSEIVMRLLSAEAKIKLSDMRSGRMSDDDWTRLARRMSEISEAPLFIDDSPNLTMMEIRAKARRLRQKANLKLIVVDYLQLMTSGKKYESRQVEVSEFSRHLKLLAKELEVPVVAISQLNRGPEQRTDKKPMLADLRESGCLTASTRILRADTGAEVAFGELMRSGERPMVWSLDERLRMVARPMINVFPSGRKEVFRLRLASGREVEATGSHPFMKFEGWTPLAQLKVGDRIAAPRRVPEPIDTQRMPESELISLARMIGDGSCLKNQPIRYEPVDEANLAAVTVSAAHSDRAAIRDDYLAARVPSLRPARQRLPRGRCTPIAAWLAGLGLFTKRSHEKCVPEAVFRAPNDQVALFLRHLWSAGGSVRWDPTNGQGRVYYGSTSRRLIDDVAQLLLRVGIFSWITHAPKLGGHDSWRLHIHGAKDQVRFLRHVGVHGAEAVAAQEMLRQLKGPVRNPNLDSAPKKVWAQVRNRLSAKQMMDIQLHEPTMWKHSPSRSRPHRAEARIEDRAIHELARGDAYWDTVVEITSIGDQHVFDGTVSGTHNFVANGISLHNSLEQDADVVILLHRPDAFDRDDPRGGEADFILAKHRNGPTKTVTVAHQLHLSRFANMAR
# Vero [4] = assay: viability of Vero cells under compound – cytotoxicity control for flavivirus capping enzyme inhibitors (AID 588742); format: functional; settings: Chlorocebus sabaeus
# Protein RecA = biological target: T2, Protein RecA (Mycobacterium tuberculosis, UniProt P9WHJ3); assay: Fluorescence Cell-Free Homogeneous Dose Retest to Identify Inhibitors of RecA-Intein Splicing Activity. [Related pubchem assays (depositor defined):AID2097, AID2223, AID489010, AID492950]; format: functional
# T2 sequence (P9WHJ3 whole entry): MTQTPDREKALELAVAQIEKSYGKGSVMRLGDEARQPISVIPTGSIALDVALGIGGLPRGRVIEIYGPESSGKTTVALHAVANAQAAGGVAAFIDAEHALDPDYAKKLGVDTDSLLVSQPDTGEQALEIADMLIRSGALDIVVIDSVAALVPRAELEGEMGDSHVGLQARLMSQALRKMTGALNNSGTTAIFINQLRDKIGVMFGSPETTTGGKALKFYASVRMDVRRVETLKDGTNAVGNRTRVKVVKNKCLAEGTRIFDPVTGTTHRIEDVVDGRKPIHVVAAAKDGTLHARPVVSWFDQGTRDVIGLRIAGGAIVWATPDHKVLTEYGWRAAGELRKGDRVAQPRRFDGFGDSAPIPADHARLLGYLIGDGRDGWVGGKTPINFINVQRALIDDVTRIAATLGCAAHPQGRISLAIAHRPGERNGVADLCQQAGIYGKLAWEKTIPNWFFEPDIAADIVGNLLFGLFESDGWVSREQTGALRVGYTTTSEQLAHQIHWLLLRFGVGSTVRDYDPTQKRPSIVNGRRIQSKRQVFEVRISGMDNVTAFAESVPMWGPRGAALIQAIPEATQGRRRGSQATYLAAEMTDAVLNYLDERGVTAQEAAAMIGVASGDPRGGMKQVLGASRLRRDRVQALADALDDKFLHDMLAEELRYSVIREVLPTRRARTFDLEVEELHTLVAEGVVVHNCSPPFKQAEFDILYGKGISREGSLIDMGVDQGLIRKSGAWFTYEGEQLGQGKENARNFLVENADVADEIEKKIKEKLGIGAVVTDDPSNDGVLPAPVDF
# [5] = biological target: T3, Mannose-6-phosphate isomerase (Homo sapiens, UniProt P34949); assay: MPI inhibition at elevated mannose 6-phosphate – biochemical, fluorescence intensity, high mannose 6-phosphate, primary screen (AID 1220)
# T3 sequence (P34949 whole entry): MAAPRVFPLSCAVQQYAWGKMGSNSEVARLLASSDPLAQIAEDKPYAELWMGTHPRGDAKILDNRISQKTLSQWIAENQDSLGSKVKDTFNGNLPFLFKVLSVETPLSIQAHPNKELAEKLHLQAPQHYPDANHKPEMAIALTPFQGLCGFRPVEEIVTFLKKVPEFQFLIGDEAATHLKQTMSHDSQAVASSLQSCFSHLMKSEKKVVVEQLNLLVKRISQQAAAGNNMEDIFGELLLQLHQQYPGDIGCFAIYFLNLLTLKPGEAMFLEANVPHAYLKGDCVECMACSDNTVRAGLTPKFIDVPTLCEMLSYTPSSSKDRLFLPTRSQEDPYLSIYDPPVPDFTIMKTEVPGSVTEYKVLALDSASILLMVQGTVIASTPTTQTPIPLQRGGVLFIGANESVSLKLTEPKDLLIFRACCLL
# [6] = biological target: Fructose-bisphosphate aldolase (Mycobacterium tuberculosis, UniProt P9WQA3); assay: Fluorescence-based biochemical high throughput dose response assay for inhibitors of the fructose-bisphosphate aldolase (FBA) of M. tuberculosis.; format: functional
# Sequence of Fructose-bisphosphate aldolase (P9WQA3 whole entry): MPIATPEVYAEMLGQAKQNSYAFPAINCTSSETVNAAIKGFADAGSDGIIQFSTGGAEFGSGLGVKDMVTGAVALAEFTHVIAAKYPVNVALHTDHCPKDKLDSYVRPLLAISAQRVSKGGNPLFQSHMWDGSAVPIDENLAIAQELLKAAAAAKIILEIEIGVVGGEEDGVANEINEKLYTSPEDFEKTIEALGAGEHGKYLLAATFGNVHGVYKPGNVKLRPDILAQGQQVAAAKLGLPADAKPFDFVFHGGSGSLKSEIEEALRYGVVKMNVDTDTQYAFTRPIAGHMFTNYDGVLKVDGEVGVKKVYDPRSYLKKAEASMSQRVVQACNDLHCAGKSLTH
# Vero [7] = assay: viability loss in Vero cells – cell-based, plate reader, cherry-pick samples, cytotoxicity control, dose response (AID 687020); format: functional; settings: Chlorocebus sabaeus
# [8] = MITF Orthogonal Assay: SK-MEL-5 CTG Assay Measured in Cell-Based System Using Plate Reader - 2084-02_Inhibitor_Dose_DryPowder_Activity_Set7.; format: functional
# [9] = MITF: Counter assay: A375 proliferation Measured in Cell-Based System Using Plate Reader - 2084-03_Inhibitor_Dose_DryPowder_Activity_Set8.; format: functional; settings: A-375
# [10] = inhibitors of TRPM1-promoter reporter in SK-MEL-5 – cell-based, luciferase, dry powder, set 8, MITF inhibitor project, dose response (AID 624430); format: functional
# [11] = biological target: Histone-lysine N-methyltransferase NSD2 (Homo sapiens, UniProt O96028); format: biochemical
# Sequence of Histone-lysine N-methyltransferase NSD2 (O96028 whole entry): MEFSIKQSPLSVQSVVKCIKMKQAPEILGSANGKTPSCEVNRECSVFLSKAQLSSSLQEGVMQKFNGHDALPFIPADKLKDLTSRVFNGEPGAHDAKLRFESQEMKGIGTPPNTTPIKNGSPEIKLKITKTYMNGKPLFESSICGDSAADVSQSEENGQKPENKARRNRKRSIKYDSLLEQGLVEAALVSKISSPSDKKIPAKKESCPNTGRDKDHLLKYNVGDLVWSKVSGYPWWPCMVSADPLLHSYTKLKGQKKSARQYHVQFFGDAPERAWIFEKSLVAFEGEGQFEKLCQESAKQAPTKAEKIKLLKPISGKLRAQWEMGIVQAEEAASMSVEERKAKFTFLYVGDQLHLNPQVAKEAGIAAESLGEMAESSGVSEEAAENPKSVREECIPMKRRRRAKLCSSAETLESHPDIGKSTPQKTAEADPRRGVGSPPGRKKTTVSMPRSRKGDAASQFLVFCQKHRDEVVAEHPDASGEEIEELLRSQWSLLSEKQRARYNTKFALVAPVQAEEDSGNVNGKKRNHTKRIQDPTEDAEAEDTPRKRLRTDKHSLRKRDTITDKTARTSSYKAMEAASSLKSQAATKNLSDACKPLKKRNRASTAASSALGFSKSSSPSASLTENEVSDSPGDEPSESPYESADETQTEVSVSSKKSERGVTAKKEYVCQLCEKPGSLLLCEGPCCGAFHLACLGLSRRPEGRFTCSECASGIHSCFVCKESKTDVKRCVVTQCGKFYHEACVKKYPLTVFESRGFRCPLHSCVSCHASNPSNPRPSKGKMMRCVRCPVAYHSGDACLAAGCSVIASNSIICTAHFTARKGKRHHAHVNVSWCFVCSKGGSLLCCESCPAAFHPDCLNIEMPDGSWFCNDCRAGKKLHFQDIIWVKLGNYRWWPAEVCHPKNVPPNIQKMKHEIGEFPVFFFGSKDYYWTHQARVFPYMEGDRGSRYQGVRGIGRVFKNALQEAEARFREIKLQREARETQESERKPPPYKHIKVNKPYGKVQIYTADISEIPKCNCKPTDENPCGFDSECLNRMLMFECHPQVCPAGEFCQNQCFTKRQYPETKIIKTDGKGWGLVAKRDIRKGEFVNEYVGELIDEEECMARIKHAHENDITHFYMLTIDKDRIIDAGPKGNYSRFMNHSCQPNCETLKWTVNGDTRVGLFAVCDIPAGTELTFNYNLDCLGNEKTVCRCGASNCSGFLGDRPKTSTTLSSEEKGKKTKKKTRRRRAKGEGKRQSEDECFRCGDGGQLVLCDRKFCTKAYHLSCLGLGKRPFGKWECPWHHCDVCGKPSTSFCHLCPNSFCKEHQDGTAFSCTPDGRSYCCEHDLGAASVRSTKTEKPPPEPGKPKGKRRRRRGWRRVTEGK
# Beta-galactosidase = Beta-galactosidase (Escherichia coli, UniProt Q8VNN2); assay: Dose response counterscreen for EBI2 assay utilizing the enzyme, b-galactosidase.; format: functional
# Sequence of Beta-galactosidase (Q8VNN2 whole entry): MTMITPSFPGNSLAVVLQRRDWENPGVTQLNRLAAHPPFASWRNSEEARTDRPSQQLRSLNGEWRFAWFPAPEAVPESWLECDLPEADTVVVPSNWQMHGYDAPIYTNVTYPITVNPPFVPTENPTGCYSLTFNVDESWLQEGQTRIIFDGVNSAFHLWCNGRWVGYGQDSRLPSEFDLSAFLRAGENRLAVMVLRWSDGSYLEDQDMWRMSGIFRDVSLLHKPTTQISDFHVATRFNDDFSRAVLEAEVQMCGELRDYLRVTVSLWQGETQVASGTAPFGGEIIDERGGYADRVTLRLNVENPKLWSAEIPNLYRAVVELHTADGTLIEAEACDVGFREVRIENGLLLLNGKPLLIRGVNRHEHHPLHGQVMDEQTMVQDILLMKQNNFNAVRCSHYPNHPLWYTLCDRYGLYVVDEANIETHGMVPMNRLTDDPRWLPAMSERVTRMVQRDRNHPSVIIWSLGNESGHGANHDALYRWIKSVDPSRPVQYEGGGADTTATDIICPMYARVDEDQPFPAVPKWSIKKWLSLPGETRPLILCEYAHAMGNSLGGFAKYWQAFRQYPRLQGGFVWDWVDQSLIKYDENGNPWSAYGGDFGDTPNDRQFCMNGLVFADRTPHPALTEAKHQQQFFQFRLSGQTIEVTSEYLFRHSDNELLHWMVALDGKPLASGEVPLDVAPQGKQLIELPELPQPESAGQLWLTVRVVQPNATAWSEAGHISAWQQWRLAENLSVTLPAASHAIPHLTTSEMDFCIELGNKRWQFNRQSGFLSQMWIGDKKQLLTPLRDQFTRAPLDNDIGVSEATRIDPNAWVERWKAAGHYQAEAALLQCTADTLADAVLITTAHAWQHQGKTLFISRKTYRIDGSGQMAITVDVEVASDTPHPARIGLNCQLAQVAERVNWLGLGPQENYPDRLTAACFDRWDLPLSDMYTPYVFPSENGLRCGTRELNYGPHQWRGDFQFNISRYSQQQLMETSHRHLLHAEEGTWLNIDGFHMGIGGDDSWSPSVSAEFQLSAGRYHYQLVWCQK
# [12] = viability loss in HEK293 kidney cells – cell-based, cherry-picks, set 5, cytotoxicity control, dose response (AID 1053117); format: functional
# [13] = HGIII-sPLA2 enzyme inhibition potency – biochemical, QFRET, IC50, dose response (AID 743457);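 also: green fluorescence rise as the enzyme cleaves BODIPY PC-A2 in liposomes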
# cells [14] = format: functional, cell-based
# [15] = biological target: T4, Nuclear receptor subfamily 0 group B member 1 (Homo sapiens, UniProt P51843); format: functional, cell-based;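 also: HEK293T cells transfected with SF-1 and DAX-1 plus StAR promoter luciferase reporter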
# T4 sequence (P51843 whole entry): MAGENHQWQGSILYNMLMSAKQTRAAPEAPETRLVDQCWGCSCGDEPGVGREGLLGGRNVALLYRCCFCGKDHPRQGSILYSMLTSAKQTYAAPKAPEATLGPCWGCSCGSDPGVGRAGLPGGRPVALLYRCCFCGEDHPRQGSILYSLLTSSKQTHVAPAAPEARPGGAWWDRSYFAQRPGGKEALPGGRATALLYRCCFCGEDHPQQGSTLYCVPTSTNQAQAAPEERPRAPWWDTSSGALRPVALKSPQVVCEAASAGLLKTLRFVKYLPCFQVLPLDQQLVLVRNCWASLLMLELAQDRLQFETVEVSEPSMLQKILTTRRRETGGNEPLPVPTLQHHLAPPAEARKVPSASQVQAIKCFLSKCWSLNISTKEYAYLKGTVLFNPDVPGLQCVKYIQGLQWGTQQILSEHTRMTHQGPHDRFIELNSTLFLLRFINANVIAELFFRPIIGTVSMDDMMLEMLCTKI
# [16] = blockade of melanocortin 4 receptor signaling – cell-based, plate reader, cherry pick, counter-screen for LGR2 antagonist project, dose response (AID 743444); format: functional;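 also: transfected HEK 293 cells stimulated with alpha-MSH peptide; potency of inhibitors of the alpha-MSH evoked signal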
# [17] = blockers of bursicon-stimulated LGR2 cAMP reporter – cell-based, HEK293, CRE-luciferase reporter, cherry pick, set 2, dose response (AID 743343); format: functional;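 also: transfected cells were stimulated with diluted bursicon conditioned medium after compound addition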
# [18] = A549 cell cytotoxicity, dose response, cytotoxicity control, plate reader, cherry-pick, antagonist series (AID 743412); format: functional, cell-based
# cells [19] = format: functional, cell-based; remark: listed apart in the source
# cells [20] = format: functional, cell-based; remark: listed apart in the source
# [21] = viability loss in HepG2 hepatoma cells – cell-based, ATP luminescence, cherry-pick, activator set 2, cytotoxicity control, dose response (AID 1053143); format: functional
# Nonstructural protein 1 = Nonstructural protein 1 (Influenza A virus, UniProt Q194T2); format: functional, Influenza A virus (A/California/07/2009(H1N1))
# Sequence of Nonstructural protein 1 (Q194T2 whole entry): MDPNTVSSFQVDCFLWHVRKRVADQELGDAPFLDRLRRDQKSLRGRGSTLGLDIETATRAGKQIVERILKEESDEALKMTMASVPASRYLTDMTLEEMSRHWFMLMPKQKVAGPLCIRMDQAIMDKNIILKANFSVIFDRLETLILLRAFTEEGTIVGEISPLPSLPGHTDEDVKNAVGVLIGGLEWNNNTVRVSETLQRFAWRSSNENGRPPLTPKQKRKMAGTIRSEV
# [22] = LMP1-induced NF-kB luciferase signal inhibition – cell-based, EBV LMP1, dry powder, set 2, dose response (AID 624361); format: functional
# [23] = activation of miR-122 Renilla sensor silencing – cell-based, Huh7 psiCHECK-miR122, Renilla luciferase, cherry-picked, dose response (AID 651956); format: functional;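 also: huh7 hepatoma cells stably carrying a psiCHECK-2 miR-122 sensor plasmid; renilla luciferase signal reporting endogenous miR-122 activity after 48 h compound exposure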
# [24] = TNFa-induced NF-kB reporter signal decrease – HEK293 LMP1 reporter cells, dry powder, set 2, selectivity assay for EBV LMP1 NF-kB inhibitor project, dose response (AID 624369); format: functional
# [25] = inhibitors of EBV LMP1 NF-kappaB signaling – cell-based, luciferase reporter, luminescence, dry powder, set 2, dose response (AID 624376); format: functional
smiles,measurement,setting,value
Cc1cccc(NC(=O)c2coc(=O)c(Br)c2)n1,IC50,[1],27.3 µM (inactive)
same,IC50,[2],45.8 µM (inactive)
CCOC(=O)c1c(NC(=O)c2ccco2)n(C2CCCCC2)c2nc3ccccc3nc12,AC50,[3],229 µM (active)
same,CC50,Vero [4],> 40 µM (active)
same,EC50,Protein RecA,2.62 µM (active)
same,IC50,[5],> 50 µM (not active)
same,IC50,[6],1.67 µM (active)
COc1c(Cl)cc(Br)c(OC)c1C(=O)NC(=O)Nc1nc(C)cc(C)n1,AC50,Vero [7],29.2 µM (active)
COc1cc2c(cc1OC)C(C1C(=O)CC(C)CC1=O)N(C(=O)CCl)CC2 (stereo not drawn),IC50,[6],> 9.99 µM (inactive)
COC(=O)CCCCOc1ccc2cc(C#N)c(=O)oc2c1,IC50,[1],> 100 µM (inactive)
same,IC50,[2],> 100 µM (inactive)
CC(C)(C)c1ccc(NC2=CC(=O)c3ccccc3C2=O)cc1,AC50,[8],3.03 µM (active)
same,AC50,[9],> 70 µM (inactive)
same,AC50,[10],13.9 µM (active)
COCC(C)OC(=O)/C(C#N)=C\c1coc2ccc(C)cc2c1=O (stereo not drawn),AC50,[11],11.9 µM (active)
CCCCNc1c(-c2ccc(-c3ccc(C(C)=O)cc3)c(OC)c2)nc2cc(C)ccn12,IC50,Beta-galactosidase,77.5 µM (inactive)
CO[C@H]1CN(C)C(=O)c2cc(NC(=O)Nc3cc(Cl)cc(Cl)c3)ccc2OC[C@@H](C)NC[C@@H]1C,AC50,[12],> 52 µM (inactive)
Cc1cccc(-n2c(S)nnc2-c2ccoc2C)c1,IC50,[13],> 122 µM (inactive)
COc1ccc(-c2cn3cc(C)ccc3n2)cc1F,IC50,cells [14],> 67.6 µM (inactive)
same,IC50,[15],> 67.6 µM (inactive)
same,AC50,[16],2.87 µM (active)
same,AC50,[17],3 µM (active)
same,AC50,[18],30.9 µM (active)
Sc1nnc(-c2ccc(Cl)cc2)n1-c1ccc2c(c1)OCCO2,IC50,[13],> 122 µM (inactive)
COc1ccc(NC2=C(C)C(=O)c3ccccc3C2=O)cc1,AC50,[8],0.533 µM (active)
same,AC50,[9],> 70 µM (inactive)
same,AC50,[10],14.3 µM (active)
COCCNC(=O)c1cc(-c2cccs2)on1,EC50,cells [19],> 350 µM (not active)
same,EC50,cells [20],70.8 µM (active)
same,AC50,[21],26 µM (active)
c1ccc(-c2cnc(-c3ccccn3)nn2)cc1,IC50,Nonstructural protein 1,18.9 µM (active)
same,AC50,[21],26 µM (active)
CN(CC(=O)Nc1cccc(F)c1)C(=O)c1ccccc1CCc1ccccc1,AC50,Vero [7],15.3 µM (active)
CN1C(=O)c2cc(NC(=O)c3ccc(C(F)(F)F)cc3)ccc2OC[C@@H]2O[C@H](CC(=O)NC3Cc4ccccc4C3)CC[C@H]21,AbsAC35,[22],52.78 µM
same,AC50,[23],15.5 µM (active)
same,AbsAC35,[24],229.94 µM
same,AbsAC35,[25],100.28 µM
CCOC(=O)N1CCN(C(=O)c2cc3c(s2)-c2ccccc2OC3)CC1,IC50,Beta-galactosidase,> 80 µM (inactive)
COc1ccccc1CNC(=O)C[C@@H]1C[C@H]2c3cc(NC(=O)c4ccc5c(c4)OCO5)ccc3O[C@H]2[C@H](CO)O1,AbsAC35,[22],179.84 µM
same,AbsAC35,[24],232.4 µM
same,AbsAC35,[25],37.67 µM
COc1cc(C2c3cc4c(cc3C(O)C3COC(=O)C23)OCO4)cc(OC)c1OC (stereo not drawn),IC50,cells [14],> 67.5 µM (inactive)
same,IC50,[15],> 67.5 µM (inactive)
